US20260007681A1, “INDOLE DERIVATIVES AS ESTROGEN RECEPTOR DEGRADERS” (REGENTS OF THE UNIVERSITY OF MICHIGAN, priority 2022, published 2026)

Tests used:
[1] = Cell growth assay (WST-8) (Compounds B1-B278); format: cell-based; conditions: 96 h; T47D cell line; WST-8, 4 days; read-out: Cell Growth Inhibition in T47D cell line IC50
Outline: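 Cells seeded at 1500/well overnight, treated one day later with compound doses for 4 days, then 10% WST-8 added for 2.5 h at 37° C in CO2. Absorbance at 450 nm, expressed relative to vehicle control over three independent repeats.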

ER = ER (Homo sapiens (Human), UniProt P03372); experiment: In-cell western blot analysis of relative ER percentage (Compounds B1-B278); format: cell-based; conditions: ER degradation, 16 hours, read-out: ICW DC50
Protocol: In-cell western blot analysis. Cells are seeded in multi-well plates (e.g., at 40,000 or 10,000 cells/well). Diluted compounds at certain concentration are added (final 0.5% DMSO) and cells are incubated for […] (e.g., 16 hours). Formaldehyde (e.g., PBS:FA=9:1) is added and followed by washing with PBS. The cells are blocked with Licor blocking buffer (Li-Cor). The relative ER percentage in treated cells are obtained by comparing the values of treated wells to those in untreated and DMSO-treated wells as 100%.
In-cell western blot analysis. a. seed cells in black-sided/clear bottom 96- or 384-well plates at 40,000 or 10,000 cells/well, overnight; b. add diluted compounds (final 0.5% DMSO), 16 hours. 16 h later, remove medium, add 100 μL or 25 μL of 3.7-4.0% formaldehyde (PBS:FA=9:1), RT 20 min, no shaking; c. wash with PBS, and permeabilized with 100 μL or 25 μL/well of 1×PBS+0.1% Triton X-100 10 minutes; d. block with 100 μL or 25 μL Licor blocking buffer (Li-Cor), RT 1 h, moderate shaking; d. Add 100 μL or 25 μL of anti-ER (cs-8644, 1:500-1,000)+GAPDH(Millipore MAB374, 1:1000) in Block+0.05% Tween 20. RT 2 h, gentle shaking. Negative control: cells plus secondary antibodies (no primary antibodies); e. wash×4 with PBS +0.05-0.1% Tween 20, gentel shaking; f. anti-rabbit-680 and anti-mouse-800 (both 1:1000 in LiCor block +0.05% Tween20, RT 1 h, gentle shaking, no light. LI-COR: 0.2% to reduce background; g. wash×4 with PBS+0.05% Tween 20, gental shaking; h. add 100 μL or 25 μL of PBS to each well and read on CLX plate reader. The relative ER percentage in treated cells were obtained by comparing the values of treated wells to those in untreated and DMSO-treated wells as 100%.

ER, sequence (P03372 whole entry): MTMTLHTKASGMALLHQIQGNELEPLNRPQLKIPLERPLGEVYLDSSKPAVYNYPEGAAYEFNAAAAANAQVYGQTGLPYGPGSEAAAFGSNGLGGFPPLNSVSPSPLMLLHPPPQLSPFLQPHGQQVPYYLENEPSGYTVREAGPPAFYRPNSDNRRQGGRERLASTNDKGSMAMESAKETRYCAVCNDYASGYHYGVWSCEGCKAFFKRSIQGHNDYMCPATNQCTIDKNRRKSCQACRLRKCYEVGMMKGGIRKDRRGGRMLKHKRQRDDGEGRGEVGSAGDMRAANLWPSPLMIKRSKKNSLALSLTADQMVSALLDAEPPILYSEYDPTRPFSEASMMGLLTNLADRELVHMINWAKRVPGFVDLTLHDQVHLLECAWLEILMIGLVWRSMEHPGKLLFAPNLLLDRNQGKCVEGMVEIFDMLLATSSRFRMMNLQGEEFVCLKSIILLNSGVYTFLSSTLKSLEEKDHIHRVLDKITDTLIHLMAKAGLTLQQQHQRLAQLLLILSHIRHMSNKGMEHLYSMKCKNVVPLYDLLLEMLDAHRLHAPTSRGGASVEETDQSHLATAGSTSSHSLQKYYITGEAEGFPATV

SMILES | DC50 (ER) [nM] | IC50 [1] [nM]
C[C@@H]1Cc2c([nH]c3ccccc23)[C@@H](c2cnc(N3CCC(OCCN4CCN5c6cc7c(cc6OC[C@@H]5C4)C(=O)N([C@H]4CCC(=O)NC4=O)C7)CC3)nc2)N1CC(F)F [Compound 1B24, (S)-3-((S)-3-(2-((1-(5-((1R,3R)-2-(2,2-difluoroethyl)-3-methyl-2,3,4,9-tetrahydro-1H-pyrido[3,4-b]indol-1-yl)pyrimidin-2-yl)piperidin-4-yl)oxy)ethyl)-8-oxo-1,2,3,4,4a,5,8,10-octahydro-9H-pyrazino[1,2′:4,5][1,4]oxazino[2,3-f]isoindol-9-yl)piperidine-2,6-dione] | 10 to 100 | 1 to 10
COc1cc(N2CCC3(CC2)OCC(CN2CCC4(CC2)COc2c4ccc4c2CN(C2CCC(=O)NC2=O)C4=O)CO3)ccc1[C@@H]1c2[nH]c3ccccc3c2C[C@@H](C)N1CC(F)F (stereo partly drawn) [Compound B274, 3-(1′-((9-(4-((1R,3R)-2-(2,2-difluoroethyl)-3-methyl-2,3,4,9-tetrahydro-1H-pyrido[3,4-b]indol-1-yl)-3-methoxyphenyl)-1,5-dioxa-9-azaspiro[5.5]undecan-3-yl)methyl)-6-oxo-6,8-dihydro-2H,7H-spiro[furo[2,3-e]isoindole-3,4′-piperidin]-7-yl)piperidine-2,6-dione] | 10 to 100 | < 1
C[C@@H]1Cc2c([nH]c3ccccc23)[C@@H](c2c(F)cc(C3CCN(C(=O)CN4CCN5c6cc7c(cc6OC[C@@H]5C4)C(=O)N(C4CCC(=O)NC4=O)C7)CC3)cc2F)N1CC(F)F (stereo partly drawn) [Compound B119, 3-((S)-3-(2-(4-(4-((1R,3R)-2-(2,2-difluoroethyl)-3-methyl-2,3,4,9-tetrahydro-1H-pyrido[3,4-b]indol-1-yl)-3,5-difluorophenyl)piperidin-1-yl)-2-oxoethyl)-8-oxo-1,2,3,4,4a,5,8,10-octahydro-9H-pyrazino[1′,2′:4,5][1,4]oxazino[2,3-f]isoindol-9-yl)piperidine-2,6-dione] | 10 to 100 | < 1
COc1cc(N2CC3(CCC(CN4CCN5c6cc7c(cc6OC[C@@H]5C4)C(=O)N(C4CCC(=O)NC4=O)C7)CO3)C2)ccc1[C@@H]1c2[nH]c3ccccc3c2C[C@@H](C)N1CC(F)F (stereo partly drawn) [Compound B278, 3-((4aS)-3-((2-(4-((1R,3R)-2-(2,2-difluoroethyl)-3-methyl-2,3,4,9-tetrahydro-1H-pyrido[3,4-b]indol-1-yl)-3-methoxyphenyl)-5-oxa-2-azaspiro[3.5]nonan-7-yl)methyl)-8-oxo-1,2,3,4,4a,5,8,10-octahydro-9H-pyrazino[1′,2′:4,5][1,4]oxazino[2,3-f]isoindol-9-yl)piperidine-2,6-dione] | 10 to 100 | 1 to 10
COc1cc(N2CC3(CCC(CN4CCN5c6ccc7c(c6OC[C@H]5C4)CN(C4CCC(=O)NC4=O)C7=O)CO3)C2)ccc1[C@@H]1c2[nH]c3ccccc3c2C[C@@H](C)N1CC(F)F (stereo partly drawn) [Compound B277, 3-((5aR)-7-((2-(4-((1R,3R)-2-(2,2-difluoroethyl)-3-methyl-2,3,4,9-tetrahydro-1H-pyrido[3,4-b]indol-1-yl)-3-methoxyphenyl)-5-oxa-2-azaspiro[3.5]nonan-7-yl)methyl)-1-oxo-1,3,5,5a,6,7,8,9-octahydro-2H-pyrazino[1′,2′:4,5][1,4]oxazino[2,3-e]isoindol-2-yl)piperidine-2,6-dione] | 10 to 100 | 1 to 10
C[C@@H]1Cc2c([nH]c3ccccc23)[C@@H](c2ccc(N3CCC4(CC3)CC(CN3CCN5c6ccc7c(c6OC[C@H]5C3)CN(C3CCC(=O)NC3=O)C7=O)CO4)cn2)N1CC(F)(F)F (stereo partly drawn) [Compound B268, (3S)-3-((5aR)-7-((8-(6-((1S,3R)-3-methyl-2-(2,2,2-trifluoroethyl)-2,3,4,9-tetrahydro-1H-pyrido[3,4-b]indol-1-yl)pyridin-3-yl)-1-oxa-8-azaspiro[4.5]dccan-3-yl)methyl)-1-oxo-1,3,5,5a,6,7,8,9-octahydro-2H-pyrazino[1′,2′:4,5][1,4]oxazino[2,3-e]isoindol-2-yl)piperidine-2,6-dione] | 10 to 100 | 1 to 10
C[C@@H]1Cc2c([nH]c3ccccc23)[C@@H](c2cnc(N3CC4(CCC(CN5CCN6c7ccc8c(c7OC[C@H]6C5)CN(C5CCC(=O)NC5=O)C8=O)CC4)C3)nc2)N1CC(F)(F)CO (stereo partly drawn) [Compound B154, 3-((R)-7-((2-(5-((1R,3R)-2-(2,2-difluoro-3-hydroxypropyl)-3-methyl-2,3,4,9-tetrahydro-1H-pyrido[3,4-b]indol-1-yl)pyrimidin-2-yl)-2-azaspiro[3.5]nonan-7-yl)methyl)-1-oxo-1,3,5,5a,6,7,8,9-octahydro-2H-pyrazino[1′,2′:4,5][1,4]oxazino[2,3-e]isoindol-2-yl)piperidine-2,6-dione] | 10 to 100 | 1 to 10

Second part, led by results:

DC50 (ER) [nM] | SMILES | IC50 [1] [nM]
< 10 | C[C@@H]1Cc2c([nH]c3ccccc23)[C@@H](c2c(F)cc(N3CCC4(CC3)CN(C(=O)CN3CCN5c6ccc7c(c6OC[C@H]5C3)CN(C3CCC(=O)NC3=O)C7=O)C4)cc2F)N1CC(F)F (stereo partly drawn) [Compound B174, 3-((R)-7-(2-(7-(4-((1R,3R)-2-(2,2-difluoroethyl)-3-methyl-2,3,4,9-tetrahydro-1H-pyrido[3,4-b]indol-1-yl)-3,5-difluorophenyl)-2,7-diazaspiro[3.5]nonan-2-yl)-2-oxoethyl)-1-oxo-1,3,5,5a,6,7,8,9-octahydro-2H-pyrazino[1′,2′:4,5][1,4]oxazino[2,3-e]isoindol-2-yl)piperidine-2,6-dione] | < 1
10 to 100 | C[C@@H]1Cc2c([nH]c3ccccc23)[C@@H](c2c(F)cc(NC3CN(C(=O)CN4CCN5c6cc7c(cc6OC[C@@H]5C4)C(=O)N(C4CCC(=O)NC4=O)C7)C3)cc2F)N1CC(F)(F)CO (stereo partly drawn) [Compound B118, 3-((S)-3-(2-(3-((4-((1R,3R)-2-(2,2-difluoro-3-hydroxypropyl)-3-methyl-2,3,4,9-tetrahydro-1H-pyrido[3,4-b]indol-1-yl)-3,5-difluorophenyl)amino)azetidin-1-yl)-2-oxoethyl)-8-oxo-1,2,3,4,4a,5,8,10-octahydro-9H-pyrazino[1′,2′:4,5][1,4]oxazino[2,3-f]isoindol-9-yl)piperidine-2,6-dione] | 1 to 10
< 10 | C[C@@H]1Cc2c([nH]c3ccccc23)[C@@H](c2cnc(N3CCC4(CC3)CC(CN3CCN5c6cc7c(cc6OC[C@@H]5C3)C(=O)N(C3CCC(=O)NC3=O)C7)CO4)nc2)N1CC(F)(F)CO (stereo partly drawn) [Compound B171, 3-((4aS)-3-((8-(5-((1R,3R)-2-(2,2-difluoro-3-hydroxypropyl)-3-methyl-2,3,4,9-tetrahydro-1H-pyrido[3,4-b]indol-1-yl)pyrimidin-2-yl)-1-oxa-8-azaspiro[4.5]dccan-3-yl)methyl)-8-oxo-1,2,3,4,4a,5,8,10-octahydro-9H-pyrazino[1′,2′:4,5][1,4]oxazino[2,3-f]isoindol-9-yl)piperidine-2,6-dione] | > 10
< 10 | C[C@@H]1Cc2c([nH]c3ccccc23)[C@@H](c2cnc(N3CCC(CCN4CCN5c6cc7c(cc6OC[C@@H]5C4)C(=O)N(C4CCC(=O)NC4=O)C7)CC3)nc2)N1CC(F)F (stereo partly drawn) [Compound B121, 3-((S)-3-(2-(1-(5-((1R,3R)-2-(2,2-difluoroethyl)-3-methyl-2,3,4,9-tetrahydro-1H-pyrido[3,4-b]indol-1-yl)pyrimidin-2-yl)piperidin-4-yl)ethyl)-8-oxo-1,2,3,4,4a,5,8,10-octahydro-9H-pyrazino[1′,2′:4,5][1,4]oxazino[2,3-f]isoindol-9-yl)piperidine-2,6-dione] | 1 to 10
< 10 | C[C@@H]1Cc2c([nH]c3ccccc23)[C@@H](c2cnc(N3CCC4(CCC(N5CCN6c7cc8c(cc7OC[C@@H]6C5)C(=O)N(C5CCC(=O)NC5=O)C8)CC4)CC3)nc2)N1CC(C)(C)F (stereo partly drawn) [Compound B139, 3-((S)-3-(3-(5-((1R,3R)-2-(2-fluoro-2-methylpropyl)-3-methyl-2,3,4,9-tetrahydro-1H-pyrido[3,4-b]indol-1-yl)pyrimidin-2-yl)-3-azaspiro[5.5]undecan-9-yl)-8-oxo-1,2,3,4,4a,5,8,10-octahydro-9H-pyrazino[1′,2′:4,5][1,4]oxazino[2,3-f]isoindol-9-yl)piperidine-2,6-dione] | 1 to 10
